Laboratory results as given in patent US20230337678A1, “NITRIC OXIDE-RELEASING ANTIBACTERIAL COMPOUNDS, FORMULATIONS, AND METHODS PERTAINING THERETO” (KNOW BIO, LLC, priority 2020, published 2023).

Experiments:
[1] = test system: Mycobacterium abscessus; assay: MIC/MBC assays, CLSI method; format: cell-based; details: Table 14, unit not given

Row | MIC ([1]; M. abscessus N0010, clinical) | MIC ([1]; M. abscessus N0016, clinical) | MIC ([1]; M. abscessus N0017, clinical) | MIC ([1]; M. abscessus N0018, clinical) | MIC ([1]; M. abscessus N0019, clinical) | MIC ([1]; M. abscessus N0020, clinical) | MIC ([1]; M. abscessus N0046) | NO Load (Table 14, unit not given) | SMILES | MBC ([1]; M. abscessus N0010, clinical) | MBC ([1]; M. abscessus N0016, clinical) | MBC ([1]; M. abscessus N0017, clinical) | MBC ([1]; M. abscessus N0018, clinical) | MBC ([1]; M. abscessus N0019, clinical) | MBC ([1]; M. abscessus N0020, clinical) | MBC ([1]; M. abscessus N0046) | NO-loading (compositions of MTDD (NCT-19-096) and β-cyclodextrin) [µmol/mg]
1 | 1 | 2 | 2 | 1 | 2 | 1 | 2 | 6.9 | C[C@@H]1CCC[C@H](C)N1[N+]([O-])=N[O-].[Na+] [cis-DMP/NO] | 4 | 4 | 4 | 4 | 4 | 2 | 4 | –
2 | – | – | – | – | – | – | – | – | OC[C@H]1O[C@@H]2O[C@H]3[C@H](O)[C@@H](O)[C@@H](O[C@H]4[C@H](O)[C@@H](O)[C@@H](O[C@H]5[C@H](O)[C@@H](O)[C@@H](O[C@H]6[C@H](O)[C@@H](O)[C@@H](O[C@H]7[C@H](O)[C@@H](O)[C@@H](O[C@H]8[C@H](O)[C@@H](O)[C@@H](O[C@H]1[C@H](O)[C@H]2O)O[C@@H]8CO)O[C@@H]7CO)O[C@@H]6CO)O[C@@H]5CO)O[C@@H]4CO)O[C@@H]3CO [0% MTDD/100% β-cyclodextrin, β-cyclodextrin] | – | – | – | – | – | – | – | 0.0
